Assay results published in patent US20030032003A1, “IN VIVO SELECTION” (priority 2000, published 2003).

Test system: Hprt +/+ mice
Assay: Histopathological analysis of mouse tissues after 6TG
[1] = Hprt +/+, 6TG lethal 50-720 mg/kg, 7 mice
[2] = Hprt +/+, 6TG sublethal 25 mg/kg, 2 mice

`Nc1nc(S)c2[nH]cnc2n1` [6TG, 2-amino-6-merkaptopurine] was tested, and the “Bone marrow Depletion, severity grade” value (Hprt +/+, 25 mg/kg i.p.) was 3.5 ± 0.5, the “Bone marrow Depletion, severity grade” value (Hprt +/+, 50 mg/kg i.p.) was 4 and the “Bone marrow Necrosis, severity grade” value (Hprt +/+, 50 mg/kg i.p.) was 3. The “Gastric epithelium Atrophy, severity grade” value (Hprt +/+, 50 mg/kg i.p.) was 2, the “Gastric epithelium Necrosis, severity grade” value (Hprt +/+, 50 mg/kg i.p.) was 1 and the “Intestinal epithelium Atrophy, severity grade” value (Hprt +/+, 50 mg/kg i.p.) was 2. The “Intestinal epithelium Necrosis, severity grade” value (Hprt +/+, 50 mg/kg i.p.) was 1, the “Liver Atrophy necrosis, severity grade” value (Hprt +/+, 50 mg/kg i.p.) was 3 and the “Spleen Lymphoid depletion, severity grade” value (Hprt +/+, 50 mg/kg i.p.) was 1. The “Bone marrow Depletion, severity grade” value (Hprt +/+, 100 mg/kg i.p.) was 4, the “Bone marrow Necrosis, severity grade” value (Hprt +/+, 100 mg/kg i.p.) was 3 and the “Gastric epithelium Atrophy, severity grade” value (Hprt +/+, 100 mg/kg i.p.) was 3. The “Gastric epithelium Necrosis, severity grade” value (Hprt +/+, 100 mg/kg i.p.) was 3, the “Intestinal epithelium Atrophy, severity grade” value (Hprt +/+, 100 mg/kg i.p.) was 3 and the “Intestinal epithelium Necrosis, severity grade” value (Hprt +/+, 100 mg/kg i.p.) was 3. For the same compound, the “Liver Atrophy necrosis, severity grade” value (Hprt +/+, 100 mg/kg i.p.) was 2, the “Spleen Lymphoid depletion, severity grade” value (Hprt +/+, 100 mg/kg i.p.) was 1 and the “Spleen Necrosis, severity grade” value (Hprt +/+, 100 mg/kg i.p.) was 2. The “Bone marrow Depletion, severity grade” value (Hprt +/+, 150 mg/kg i.p.) was 4, the “Bone marrow Necrosis, severity grade” value (Hprt +/+, 150 mg/kg i.p.) was 4 and the “Gastric epithelium Atrophy, severity grade” value (Hprt +/+, 150 mg/kg i.p.) was 1. The “Gastric epithelium Necrosis, severity grade” value (Hprt +/+, 150 mg/kg i.p.) was 1, the “Intestinal epithelium Atrophy, severity grade” value (Hprt +/+, 150 mg/kg i.p.) was 1 and the “Intestinal epithelium Necrosis, severity grade” value (Hprt +/+, 150 mg/kg i.p.) was 1. For the same compound, the “Liver Atrophy necrosis, severity grade” value (Hprt +/+, 150 mg/kg i.p.) was 2, the “Liver Centrilobular hypertrophy, severity grade” value (Hprt +/+, 150 mg/kg i.p.) was 2 and the “Spleen Lymphoid depletion, severity grade” value (Hprt +/+, 150 mg/kg i.p.) was 2. The “Spleen Necrosis, severity grade” value (Hprt +/+, 150 mg/kg i.p.) was 2, the “Bone marrow Depletion, severity grade” value (Hprt +/+, 225 mg/kg i.p.) was 3 and the “Bone marrow Necrosis, severity grade” value (Hprt +/+, 225 mg/kg i.p.) was 3. For the same compound, the “Gastric epithelium Atrophy, severity grade” value (Hprt +/+, 225 mg/kg i.p.) was 1, the “Gastric epithelium Necrosis, severity grade” value (Hprt +/+, 225 mg/kg i.p.) was 1 and the “Intestinal epithelium Atrophy, severity grade” value (Hprt +/+, 225 mg/kg i.p.) was 1. For the same compound, the “Intestinal epithelium Necrosis, severity grade” value (Hprt +/+, 225 mg/kg i.p.) was 1, the “Liver Atrophy necrosis, severity grade” value (Hprt +/+, 225 mg/kg i.p.) was 2 and the “Liver Centrilobular hypertrophy, severity grade” value (Hprt +/+, 225 mg/kg i.p.) was 1. The “Liver Fatty change, severity grade” value (Hprt +/+, 225 mg/kg i.p.) was 1, the “Spleen Lymphoid depletion, severity grade” value (Hprt +/+, 225 mg/kg i.p.) was 3 and the “Spleen Necrosis, severity grade” value (Hprt +/+, 225 mg/kg i.p.) was 4. For the same compound, the “Bone marrow Depletion, severity grade” value (Hprt +/+, 338 mg/kg i.p.) was 4, the “Bone marrow Necrosis, severity grade” value (Hprt +/+, 338 mg/kg i.p.) was 3 and the “Gastric epithelium Atrophy, severity grade” value (Hprt +/+, 338 mg/kg i.p.) was 3. The “Gastric epithelium Necrosis, severity grade” value (Hprt +/+, 338 mg/kg i.p.) was 3, the “Intestinal epithelium Atrophy, severity grade” value (Hprt +/+, 338 mg/kg i.p.) was 3 and the “Intestinal epithelium Necrosis, severity grade” value (Hprt +/+, 338 mg/kg i.p.) was 3. For the same compound, the “Liver Atrophy necrosis, severity grade” value (Hprt +/+, 338 mg/kg i.p.) was 1, the “Liver Centrilobular hypertrophy, severity grade” value (Hprt +/+, 338 mg/kg i.p.) was 2 and the “Liver Fatty change, severity grade” value (Hprt +/+, 338 mg/kg i.p.) was 2. For the same compound, the “Spleen Lymphoid depletion, severity grade” value (Hprt +/+, 338 mg/kg i.p.) was 2, the “Spleen Necrosis, severity grade” value (Hprt +/+, 338 mg/kg i.p.) was 1 and the “Bone marrow Depletion, severity grade” value (Hprt +/+, 507 mg/kg i.p.) was 3. The “Bone marrow Necrosis, severity grade” value (Hprt +/+, 507 mg/kg i.p.) was 4, the “Gastric epithelium Atrophy, severity grade” value (Hprt +/+, 507 mg/kg i.p.) was 1 and the “Gastric epithelium Necrosis, severity grade” value (Hprt +/+, 507 mg/kg i.p.) was 1. The “Intestinal epithelium Atrophy, severity grade” value (Hprt +/+, 507 mg/kg i.p.) was 1, the “Intestinal epithelium Necrosis, severity grade” value (Hprt +/+, 507 mg/kg i.p.) was 1 and the “Liver Atrophy necrosis, severity grade” value (Hprt +/+, 507 mg/kg i.p.) was 1. The “Liver Centrilobular hypertrophy, severity grade” value (Hprt +/+, 507 mg/kg i.p.) was 1, the “Liver Fatty change, severity grade” value (Hprt +/+, 507 mg/kg i.p.) was 2 and the “Spleen Lymphoid depletion, severity grade” value (Hprt +/+, 507 mg/kg i.p.) was 1. For the same compound, the “Spleen Necrosis, severity grade” value (Hprt +/+, 507 mg/kg i.p.) was 2, the “Bone marrow Depletion, severity grade” value (Hprt +/+, 720 mg/kg i.p.) was 4 and the “Bone marrow Necrosis, severity grade” value (Hprt +/+, 720 mg/kg i.p.) was 4. The “Gastric epithelium Atrophy, severity grade” value (Hprt +/+, 720 mg/kg i.p.) was 1, the “Gastric epithelium Necrosis, severity grade” value (Hprt +/+, 720 mg/kg i.p.) was 1 and the “Intestinal epithelium Atrophy, severity grade” value (Hprt +/+, 720 mg/kg i.p.) was 1. For the same compound, the “Intestinal epithelium Necrosis, severity grade” value (Hprt +/+, 720 mg/kg i.p.) was 1, the “Liver Atrophy necrosis, severity grade” value (Hprt +/+, 720 mg/kg i.p.) was 2 and the “Liver Centrilobular hypertrophy, severity grade” value (Hprt +/+, 720 mg/kg i.p.) was 1. For the same compound, the “Spleen Lymphoid depletion, severity grade” value (Hprt +/+, 720 mg/kg i.p.) was 3, the “Spleen Necrosis, severity grade” value (Hprt +/+, 720 mg/kg i.p.) was 3 and the “Bone marrow Depletion, average of lesion severity grade” value [1] was 3.7 ± 0.5. For the same compound, the “Bone marrow Necrosis, average of lesion severity grade” value [1] was 3.4 ± 0.5, the “Gastric epithelium Atrophy, average of lesion severity grade” value [1] was 1.7 ± 0.9 and the “Gastric epithelium Necrosis, average of lesion severity grade” value [1] was 1.6 ± 0.9. For the same compound, the “Intestinal epithelium Atrophy, average of lesion severity grade” value [1] was 1.7 ± 0.9, the “Intestinal epithelium Necrosis, average of lesion severity grade” value [1] was 1.6 ± 1.0 and the “Liver Atrophy necrosis, average of lesion severity grade” value [1] was 1.9 ± 0.7. The “Liver Centrilobular hypertrophy, average of lesion severity grade” value [1] was 1.0 ± 0.8, the “Liver Fatty change, average of lesion severity grade” value [1] was 0.7 ± 0.9 and the “Spleen Lymphoid depletion, average of lesion severity grade” value [1] was 1.9 ± 0.9. For the same compound, the “Spleen Necrosis, average of lesion severity grade” value [1] was 2.0 ± 1.3, the “Bone marrow Depletion, average of lesion severity grade” value [2] was 3.5 ± 0.5 and the “Bone marrow Necrosis, average of lesion severity grade” value [2] was 0.5 ± 0.5. For the same compound, the “Liver Atrophy necrosis, average of lesion severity grade” value [2] was 2.5 ± 0.5, the “starting dose of liver lesions (necrosis and atrophy of hepatocytes)” value (Hprt wildtype mice) was 25 mg/kg and the “lowest dose with liver centrilobular hypertrophy” value (wildtype mice) was 150 mg/kg. The “lowest dose with liver fatty change” value (wildtype mice) was 225 mg/kg and the “starting dose of atrophy and/or necrosis of gastrointestinal epithelium” value (wildtype mice) was 50 mg/kg.
